Data taken from publication PMC10835127, “Viruses traverse the human proteome through peptide interfaces that can be biomimetically leveraged for drug discovery” (Proceedings of the National Academy of Sciences of the …, 2024).
Read-outs that look alike come from different tables or passages of the source.

Tests used:
HIV1 strain NL4-3 = format: cell-based; details: normalized mean of HIV1 replication readout
HCV replicon = format: cell-based; details: for HCV Norm MEAN: normalized mean of HCV replicon readout
[1] = system: F. novicida (strain U112); format: cell-based
influenza A H1N1 virus = details: 48 hr post-treatment, A549
EBV = details: normalized mean of EBV replication readout

Substance	HIV1 Norm MEAN (HIV1 strain NL4-3)	HCV Norm MEAN (HCV replicon)	Francisella novicida Norm AUC [1]	Neuraminidase activity normalized to vehicle (influenza A H1N1 virus; 200 µM peptide)	Neuraminidase activity normalized to vehicle (influenza A H1N1 virus; 0,823 µM peptide)	Neuraminidase activity normalized to vehicle (influenza A H1N1 virus; 22,2 µM peptide)	Neuraminidase activity normalized to vehicle (influenza A H1N1 virus; 2,4691 µM peptide)	Neuraminidase activity normalized to vehicle (influenza A H1N1 virus; 7,4074 µM peptide)	Neuraminidase activity normalized to vehicle (influenza A H1N1 virus; 66,6667 µM peptide)	EBV Norm MEAN (EBV)	HIV1 Norm MEAN (HIV1 strain NL4-3; peptide screen)	HCV Norm MEAN (HCV replicon; peptide screen)	EBV Norm MEAN (EBV; peptide screen)	activity in HCV screen (in words) (HCV replicon; 20 µM peptide, Huh7, replicon luciferase)
CPEP86: peptide of the viral peptide library; sequence page not shown (SGFGPLITHG)	0.7849	0.5296	0.8325	0,9563	0,7964	1,0588	1,0728	0,943	1,0345	1.554				
ISNLPYTIKYKIFEQQ [CPEP120]			0.5785	1,0456	1,0562	1,193	0,9901	1,0754	1,0268		3.21	0.3919	1.211	
CPEP89: peptide of the viral peptide library; sequence page not shown (YDVLKAACKSVIKT)			0.9882	0,097	0,8515	0,6685	0,8767	0,7891	0,2057		4.725	1.184	0.6285	
YLTDM [CPEP154]	1.461	0.1792	0.5909	1,0928	1,0316	1,0253	0,9855	1,0107	1,0399	1.807				
DLYCYEQLNDSSEEE [CPEP55]			1.147	1,025	0,8699	0,9333	0,9062	0,9392	1,0033		0.5362	0.7703	0.3423	
CPEP83: peptide of the viral peptide library; sequence page not shown (LHGLSAFSLHSYS)	3.012	0.4141	1.204	0,249	0,6779	0,9424	0,9223	0,934	0,7894	0.5883				
MNNQRKKAKNTPFNM [CPEP62]			0.8631	1,2311	1,1108	0,891	1,0767	0,9136	1,1387		0.3968	0.5393	1.218	
IKQEDIKP [CPEP109]	0.5534	0.2159	0.9859	0,7052	0,9055	0,889	0,8881	0,975	0,8029	0.5875				
LEDLL [CPEP131]	2.616	0.1994	1.169	1,0859	1,0236	1,0471	1,0486	0,9867	1,1075	1.433				
EALKKALRRHRFLWQRR [CPEP73]			1.711	0,1338	1,11	1,1241	0,9956	1,1329	0,4622		0.2962	0.02817	2.469	
KKTKSLP [CPEP75]	0.7985	0.2042	1.06	0,6614	0,8942	0,8062	0,8135	0,8547	0,7577	0.414				
IVISDSEEE [CPEP121]	0.9208	0.7416	1.126	1,0697	1,0507	1,0096	1,0097	0,9639	1,0552	1.138				
LRKRRKRL [CPEP145]	1.45	0.1172	1.33	0,7911	0,8361	0,839	0,7253	0,7634	0,9146	2.86				inhibition of RNA
RRPSRPFRK [CPEP88]	0.3045	0.6746	1.028	0,55	0,9984	0,7716	0,8217	0,8463	0,6969	0.9654				
RHFPRIW [CPEP146]	0.9815	0.2243	1.892	0,7481	0,8163	0,8498	0,7842	0,7775	0,9221	1.3564				
SKMQL [CPEP150]	1.8032	0.2118	0.5976	1,0149	0,912	0,9305	0,7746	0,8703	0,9907	1.198				
